Laboratory results from patent publication US6576437B2, “Stimulus-inducible protein kinase complex and methods of use therefor” (Signal Pharmaceuticals, Inc., priority 1996, dated 2003).
“Also recorded” adds a separate entry of the source. Square brackets hold non-standard residues; d marks the D form. Ends that are not written are not given here. Peptide text beside a SMILES is read from it. pS = N[C@@H](COP(=O)(O)O)C(=O)O

Legend:
[1] = biological target: T1, IKK signalsome (Homo sapiens, UniProt O14920+O15111); test: Inhibition of immunopurified IKK signalsome activity (32P incorporation into GST-IκBα(1-54)); type: biochemical; conditions: GST-IκBα(1-54) 0.56 μM, ATP 3 μM; for inhibition of IKK signalsome kinase (phosphorylation of GST-IκBα (1-54)): one hour at room temperature
T1 construct: endogenous in cells; host or cells: HeLa / HeLa S3 cells stimulated with TNFα; anti-MKP-1 immunoprecipitate
T1 sequence (O15111 whole entry): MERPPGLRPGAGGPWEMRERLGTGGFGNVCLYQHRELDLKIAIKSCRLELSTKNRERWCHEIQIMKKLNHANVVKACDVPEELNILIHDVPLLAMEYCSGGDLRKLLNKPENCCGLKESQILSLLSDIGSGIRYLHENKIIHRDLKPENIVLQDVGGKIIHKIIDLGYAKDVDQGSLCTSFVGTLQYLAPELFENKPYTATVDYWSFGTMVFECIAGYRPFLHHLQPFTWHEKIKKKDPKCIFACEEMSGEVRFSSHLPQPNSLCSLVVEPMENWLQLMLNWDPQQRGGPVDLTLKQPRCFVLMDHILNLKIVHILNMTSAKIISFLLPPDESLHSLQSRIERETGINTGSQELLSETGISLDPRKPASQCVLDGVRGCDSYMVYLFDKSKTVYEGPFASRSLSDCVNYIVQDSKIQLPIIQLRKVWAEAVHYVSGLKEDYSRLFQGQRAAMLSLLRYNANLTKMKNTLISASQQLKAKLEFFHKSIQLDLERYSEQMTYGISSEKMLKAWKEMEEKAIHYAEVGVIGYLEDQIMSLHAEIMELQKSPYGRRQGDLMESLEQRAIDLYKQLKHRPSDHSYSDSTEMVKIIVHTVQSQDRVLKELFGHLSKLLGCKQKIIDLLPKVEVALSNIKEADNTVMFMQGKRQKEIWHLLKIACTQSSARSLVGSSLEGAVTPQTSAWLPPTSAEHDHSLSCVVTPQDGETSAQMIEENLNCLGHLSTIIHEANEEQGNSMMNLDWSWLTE
T1 sequence (O14920 whole entry): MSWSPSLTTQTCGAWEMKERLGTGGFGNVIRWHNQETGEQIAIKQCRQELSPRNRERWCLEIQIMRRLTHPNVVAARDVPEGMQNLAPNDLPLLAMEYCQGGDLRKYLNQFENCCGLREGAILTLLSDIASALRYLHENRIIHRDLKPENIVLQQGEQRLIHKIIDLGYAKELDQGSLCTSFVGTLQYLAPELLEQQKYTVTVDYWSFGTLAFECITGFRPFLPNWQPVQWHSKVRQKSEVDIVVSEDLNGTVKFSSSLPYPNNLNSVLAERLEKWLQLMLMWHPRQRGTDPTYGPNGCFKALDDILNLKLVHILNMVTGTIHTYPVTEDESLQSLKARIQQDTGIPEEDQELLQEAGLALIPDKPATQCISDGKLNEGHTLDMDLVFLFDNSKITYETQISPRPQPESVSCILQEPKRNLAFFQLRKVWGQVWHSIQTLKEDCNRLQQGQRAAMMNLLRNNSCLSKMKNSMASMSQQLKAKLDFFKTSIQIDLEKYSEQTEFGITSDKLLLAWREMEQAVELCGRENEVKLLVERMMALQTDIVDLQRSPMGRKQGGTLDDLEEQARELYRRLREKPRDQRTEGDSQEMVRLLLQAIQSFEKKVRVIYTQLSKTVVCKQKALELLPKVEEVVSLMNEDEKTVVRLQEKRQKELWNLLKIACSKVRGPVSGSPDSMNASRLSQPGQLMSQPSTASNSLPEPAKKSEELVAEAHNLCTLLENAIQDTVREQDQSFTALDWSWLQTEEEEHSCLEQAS
T1 sequence (Q9Y6K9 whole entry partner): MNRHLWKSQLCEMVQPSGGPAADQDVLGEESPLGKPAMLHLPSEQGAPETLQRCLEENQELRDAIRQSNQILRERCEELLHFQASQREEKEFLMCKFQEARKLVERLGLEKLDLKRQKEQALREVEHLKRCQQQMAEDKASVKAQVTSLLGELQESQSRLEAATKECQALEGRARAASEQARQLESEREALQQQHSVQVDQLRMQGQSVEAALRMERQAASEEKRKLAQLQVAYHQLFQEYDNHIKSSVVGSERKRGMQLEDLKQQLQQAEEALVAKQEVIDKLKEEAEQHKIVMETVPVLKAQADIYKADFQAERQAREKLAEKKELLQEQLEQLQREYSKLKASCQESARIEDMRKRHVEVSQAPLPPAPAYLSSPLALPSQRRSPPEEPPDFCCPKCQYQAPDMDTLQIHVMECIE
Experimental: FIG. 9B is a graph illustrating the inhibition of phosphorylation of GST-IκBα (1-54) by IκBα(21-41) peptides. […] This assay only detects precipitated ^32P-labeled proteins, not ^32P-labeled peptides. Addition of the singly- or non-phosphorylated IκBα(21-41) peptides results in less phosphorylation of GST-IκBα (1-54) and apparent inhibition.
Inhibition of immunopurified IKK signalsome activity was measured by ^32P incorporation into GST-IκBα(1-54) in a discontinuous assay using the reaction conditions described above. The concentrations of GST-IκBα(1-54) and ATP used in the inhibition studies were 0.56 μM and 3 μM, respectively. Enzymatic reactions (32 μL) were carried out in wells of a 96 well assay plate for one hour at room temperature and terminated with the addition of trichloroacetic acid (TCA) (150 μL/well of 12.5% w/v). The subsequent 20 minute incubation with TCA precipitated the proteins but not peptides from solution. The TCA precipitate was collected on 96-well glass fiber plates (Packard) and washed 10 times with approximately 0.3 mL per well of Dulbecco's phosphate buffered saline pH 7.4 (Sigma) using a Packard Filtermate 196. Scintillation fluid (0.50 mL, MicroScint, Packard) was added to each well and the plate was analyzed for ^32P using a Packard TopCount scintillation counter. Less than 10% of ATP was turned over in the course of the assay reaction, ensuring that the kinetic data represented initial rate data. The inhibition constant of the P32, 36 peptide was determined by Dixon analysis (Dixon and Webb, In Enzymes (Academic Press: New York, ed. 3, 1979), pp. 350-51.

[2] = biological target: T1, IKK signalsome; test: IKK signalsome activity in anti-MKP-1 immunoprecipitates from TNFα-stimulated HeLa S3 cells pretreated with inhibitor; type: cell-based; conditions: HeLa S3 cells pretreated 30 min with 15 μM prior to TNFα (20 ng/ml, 7 min)
Experimental: FIG. 8B illustrates the stimulus-dependent activation of IKK signalsome, which is blocked by TPCK. Anti-MKP-1 immunoprecipitates from cell extracts of HeLa S3 cells either stimulated for 7 min with TNFα (20 ng/ml, lane 2 and 6), IL-1 (10 ng/ml, lane 3), PMA (50 ng/ml, lane 4) or pretreated for 30 min with TPCK (15 μM, lane 7) prior to TNFα-induction were examined for IKK signalsome activity. GST IκBα 1-54 WT (4 μg) was used as a substrate.
For these studies, small scale immunoprecipitation were performed using two 150 mm plates of HeLa cells (one stimulated and one unstimulated). Whole cell lysates were diluted 4-fold with 2×Pull-Down Buffer (40 mM Tris pH 8.0, 500 mM NaCl, 0.1% NP-40, 6 mM EDTA, 6 mM EGTA, 10 mM β-glycerophosphate, 10 mM NaF, 10 mM PNPP, 300 μM Na3VO4, 1 mM benzamidine, 2 μM PMSF, 10 μg/ml aprotonin, 1 μg/ml leupeptin, 1 μg/ml pepstatin, 1 mM DTT) and 2-4 μg of the indicated antibody was added. Lysates were incubated on ice for 1-2 hours, 10 μl of Protein A or G beads were added, and lysates were left to incubate with gentle rotation for an additional 1 hour at 4° C. The immunoprecipitate was then washed 3 times with 2×Pull-Down Buffer, 1× with kinase buffer without ATP and subjected to a kinase assay as described in Example 2. […]

[3] = biological target: T1, IKK signalsome; test: Phosphorylation of synthetic peptides by the IKK signalsome (immunokinase assay); type: biochemical; conditions: peptide 100 μM; for phosphorylation of peptide by IKK signalsome: γ-[32P]-ATP, one hour at room temperature
Experimental: FIG. 9A is an autoradiogram depicting the results of an immunokinase assay in which peptides are phosphorylated by the IKK signalsome. In the top panel, IκBα(21-41) peptides that were unphosphorylated or chemically phosphorylated on either Ser-32 or Ser-36 were incubated with the IKK signalsome in the presence of γ-[^32P]-ATP.
Phosphorylation of these peptides (100 μM) was performed using a kinase reaction as described above. Reactions were for one hour at room temperature and were terminated by the addition of SDS-PAGE loading buffer. SDS-PAGE with a 16% Tris/tricine gel (Novex, San Diego, Calif.) or a 4-20% Tris/glycine gel (Novex, San Diego, Calif.) was used to characterize the reaction products. Gels were washed, dried in vacuo, and exposed to autoradiographic film.

[4] = test system: RelA translocation in HeLa cells; test: RelA nuclear translocation in transiently transfected HeLa cells (immunofluorescence); type: cell-based, human
Experimental: HeLa cells were transiently transfected with either HA-tagged IKK-1 K44 to M mutant (14B) or Flag-tagged IKK-2 K44 to M mutant (14C) expression vectors. 36 hours post-transfection cells were either not stimulated (Unstim) or TNFα-stimulated (20 ng/ml) for 30 min (TNFα), as indicated to the right of the figure. Cells were then subjected to immunofluorescence staining using anti-HA of anti-Flag antibodies to visualize expression of IKK-1 K44 to M or IKK-2 K44 to M, respectively. Stimulus-dependent translocation of Rel A was monitored using anti-Rel A antibodies. Antibodies used are indicated to the top of the figure. IKK mutant transfected is indicated to the left of the figure.
For these studies, HeLa cells were transiently transfected with either HA-tagged IKK-1 or Flag-tagged IKK-2. Cells were fixed for 30 minutes with methanol. For immunofluorescence staining, the cells were incubated sequentially with primary antibody in PBS containing 10% donkey serum and 0.25% Triton X-100 for 2 hours followed by fluorescein-conjugated or Texas red-conjugated secondary antibody (Jackson Immunoresearch Laboratories, Inc., West Grove, Pa.; used at 1:500 dilution) for 1 hour at room temperature. The coverslips were rinsed and coverslipped with Vectashield (Vector Laboratories, Burlingame, Calif.) before scoring and photographing representative fields. […]

Molecule CSCC[C@H](NC(=O)[C@H](COP(=O)(O)O)NC(=O)[C@H](CC(=O)O)NC(=O)[C@H](CC(C)C)NC(=O)CNC(=O)[C@H](COP(=O)(O)O)NC(=O)[C@H](CC(=O)O)NC(=O)[C@H](Cc1c[nH]cn1)NC(=O)[C@H](CCCNC(=N)N)NC(=O)[C@H](CC(=O)O)NC(=O)[C@H](CC(=O)O)NC(=O)[C@H](CC(C)C)NC(=O)[C@H](CC(C)C)NC(=O)[C@H](CCCNC(=N)N)NC(=O)[C@H](CCC(=O)O)NC(=O)[C@H](CCCCN)NC(=O)[C@H](CCCCN)NC(=O)[C@@H](N)CS)C(=O)N[C@@H](CCCCN)C(=O)N[C@@H](CC(=O)O)C(=O)N[C@@H](CCC(=O)O)C(=O)N[C@@H](CCC(=O)O)C(=O)O [IκBα(21-41) peptide P32,36] (H-CKKERLLDDRHD[pS]GLD[pS]MKDEE-OH) has a Ki ([1]; Dixon analysis, read-out: Ki (product inhibition of GST-IκBα (1-54) phosphorylation)) of 14 µM.

With Cc1ccc(S(=O)(=O)N[C@@H](Cc2ccccc2)C(=O)CCl)cc1 [TPCK] the “IKK signalsome activity in treated cells” value [2] was “inhibited; also recorded: blocked”.

In the case of “CKKERLLDDRHDSGLDSMKDEE [IκBα (21-41) peptide]”, the “inhibition of IKK signalsome kinase (phosphorylation of GST-IκBα (1-54))” value (“inhibition of IKK signalsome kinase” below) [1] is reported as “less effective inhibitors” and the “phosphorylation of peptide by IKK signalsome” value (“phosphorylation of peptide” for short) [3] is reported as “capable of phosphorylating”.

CKKERLLDDRHDTGLDTMKDEE was tested, and the “phosphorylation by the signalsome, fold less well than the wild-type serine-containing peptide” value [3] was “at least 10 fold”.

CPTNSALNYLKSPITTSPS [MKP-1 peptide] was tested, and the “phosphorylation of peptide” value [3] was “did not phosphorylate”.

“DLTGGPEVAT(PO3)PESEEAFLP [c-Fos(222-241)]” was tested, and the “inhibition of IKK signalsome kinase” value [1] was “does not function as an inhibitor”, the “inhibition of IKK signalsome kinase” value ([1]; listed as c-Fos phosphopeptide) was “not” and the “inhibition of IKK signalsome kinase” value ([1]; listed as c-fos phosphopeptide) was “not”. For the same molecule, the “phosphorylation of peptide” value [3] was “did not function as a signalsome substrate” and the “phosphorylation of peptide” value ([3]; listed as c-Fos phosphopeptide) was “did not phosphorylate”.

“singly-phosphorylated IκBα peptides: two IκBα (21-41) peptides, free serine at position 32 or 36 and phosphoserine at the other position (KKERLLDDRHDSGLDSMKDEE; not fully specified (N-terminus); also: pS at S32 or S36, free Ser at the other (two peptides); UniProt P25963 21-41, looked up, fragment)” was tested, and the “inhibition of IKK signalsome kinase” value [1] was “less effective inhibitors”.

B1: IKK-2 mutant: Flag-tagged kinase-inactive version (K44 to M) of IKK-2 (protein, UniProt O14920 1-756, looked up, variant K44M)
Inhibitor of nuclear factor …: MSWSPSLTTQTCGAWEMKERLGTGGFGNVIRWHNQETGEQIAIMQCRQELSPRNRERWCLEIQIMRRLTHPNVVAARDVPEGMQNLAPNDLPLLAMEYCQGGDLRKYLNQFENCCGLREGAILTLLSDIASALRYLHENRIIHRDLKPENIVLQQGEQRLIHKIIDLGYAKELDQGSLCTSFVGTLQYLAPELLEQQKYTVTVDYWSFGTLAFECITGFRPFLPNWQPVQWHSKVRQKSEVDIVVSEDLNGTVKFSSSLPYPNNLNSVLAERLEKWLQLMLMWHPRQRGTDPTYGPNGCFKALDDILNLKLVHILNMVTGTIHTYPVTEDESLQSLKARIQQDTGIPEEDQELLQEAGLALIPDKPATQCISDGKLNEGHTLDMDLVFLFDNSKITYETQISPRPQPESVSCILQEPKRNLAFFQLRKVWGQVWHSIQTLKEDCNRLQQGQRAAMMNLLRNNSCLSKMKNSMASMSQQLKAKLDFFKTSIQIDLEKYSEQTEFGITSDKLLLAWREMEQAVELCGRENEVKLLVERMMALQTDIVDLQRSPMGRKQGGTLDDLEEQARELYRRLREKPRDQRTEGDSQEMVRLLLQAIQSFEKKVRVIYTQLSKTVVCKQKALELLPKVEEVVSLMNEDEKTVVRLQEKRQKELWNLLKIACSKVRGPVSGSPDSMNASRLSQPGQLMSQPSTASNSLPEPAKKSEELVAEAHNLCTLLENAIQDTVREQDQSFTALDWSWLQTEEEEHSCLEQAS
modifications: Flag tag
B1 was tested, and the “inhibition of RelA nuclear translocation” value ([4]; TNFα-stimulated (20 ng/ml, 30 min) HeLa cells, 36 hours post-transfection) was “striking and complete” and the “effect on subcellular localization of RelA” value ([4]; unstimulated HeLa cells) was “no effect”.
